Results from patent publication US20260365647A1, “AKT1 MODULATORS” (Alterome Therapeutics, Inc., priority 2022, published 2026).

Each molecule was assayed against T1, AKT1-E17K (Homo sapiens, UniProt P31749, E17K) (assay: NanoBRET Target Engagement (TE) Assay).
T1 construct: host or cells: HEK-293 (ATCC CRL-1573)
Format: cell-based
Summary of the method: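 Live cells transiently expressing NanoLuc-AKT1 E17K fusion, incubated 2 h with tracer and compound before substrate plus extracellular NanoLuc inhibitor were added. BRET read at 450/600 nm; EC50 from variable-slope sigmoidal fit of tracer displacement.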

T1 sequence (P31749 whole entry E17K): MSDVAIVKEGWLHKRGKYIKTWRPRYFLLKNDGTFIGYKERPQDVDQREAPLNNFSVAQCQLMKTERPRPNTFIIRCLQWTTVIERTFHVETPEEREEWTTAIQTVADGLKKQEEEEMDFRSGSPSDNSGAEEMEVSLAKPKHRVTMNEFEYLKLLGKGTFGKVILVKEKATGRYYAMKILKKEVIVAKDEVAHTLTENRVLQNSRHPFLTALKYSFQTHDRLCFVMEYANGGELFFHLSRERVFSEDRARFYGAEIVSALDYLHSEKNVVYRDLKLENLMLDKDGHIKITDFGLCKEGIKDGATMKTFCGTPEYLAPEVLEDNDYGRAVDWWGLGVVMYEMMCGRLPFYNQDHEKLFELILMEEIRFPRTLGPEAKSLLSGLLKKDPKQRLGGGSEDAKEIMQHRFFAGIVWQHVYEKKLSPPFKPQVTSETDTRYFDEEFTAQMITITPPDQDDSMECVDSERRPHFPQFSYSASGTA

Row | IC50 [nM] | SMILES
1 | > 600 | Nc1ncccc1-c1nc2ccc(-c3ccccc3)nc2n1-c1ccc(CN2CC3CCC(C2)N3C(=O)c2ccc(O)c(C=O)c2)cc1 [Example 110, 5-(3-(4-(2-(2-Aminopyridin-3-yl)-5-phenyl-3H-imidazo[4,5-b]pyridin-3-yl)benzyl)-3,8-diazabicyclo[3.2.1]octane-8-carbonyl)-2-hydroxybenzaldehyde]
2 | > 600 | Nc1ncccc1-c1nc2ccc(-c3ccccc3)nc2n1-c1ccc(CN2CC3CCC(C2)N3c2ccc(C=O)c(O)c2)cc1 [Example 111, 4-(3-(4-(2-(2-Aminopyridin-3-yl)-5-phenyl-3H-imidazo[4,5-b]pyridin-3-yl)benzyl)-3,8-diazabicyclo[3.2.1]octan-8-yl)-2-hydroxybenzaldehyde]
3 | > 600 | Nc1ncccc1-c1nc2ccc(-c3ccccc3)nc2n1-c1ccc(CN2C3CCC2CN(C(=O)c2ccc(O)c(C=O)c2)C3)cc1 [Example 112, 5-(8-(4-(2-(2-Aminopyridin-3-yl)-5-phenyl-3H-imidazo[4,5-b]pyridin-3-yl)benzyl)-3,8-diazabicyclo[3.2.1]octane-3-carbonyl)-2-hydroxybenzaldehyde]
4 | 60 to 600 | Nc1ncccc1-c1nc2ccc(-c3ccccc3)nc2n1-c1ccc(CN2C3CCC2CN(C(=O)c2ccc(C=O)c(O)c2)C3)cc1 [Example 113, 4-(8-(4-(2-(2-Aminopyridin-3-yl)-5-phenyl-3H-imidazo[4,5-b]pyridin-3-yl)benzyl)-3,8-diazabicyclo[3.2.1]octane-3-carbonyl)-2-hydroxybenzaldehyde]
5 | 60 to 600 | Nc1ncccc1-c1nc2ccc(-c3ccccc3)nc2n1-c1ccc(CN2C3CCC2CN(c2ccc(C=O)c(O)c2)C3)cc1 [Example 114, 4-(8-(4-(2-(2-Aminopyridin-3-yl)-5-phenyl-3H-imidazo[4,5-b]pyridin-3-yl)benzyl)-3,8-diazabicyclo[3.2.1]octan-3-yl)-2-hydroxybenzaldehyde]
6 | 15 to 60 | Nc1ncccc1-c1nc2ccc(-c3ccccc3)nc2n1-c1ccc(CN2CCCC(NC(=O)c3ccc(O)c(C=O)c3)CC2)cc1 (centres unmarked) [Example 115, N-(1-(4-(2-(2-Aminopyridin-3-yl)-5-phenyl-3H-imidazo[4,5-b]pyridin-3-yl)benzyl)azepan-4-yl)-3-formyl-4-hydroxybenzamide]
7 | 60 to 600 | Nc1ncccc1-c1nc2ccc(-c3ccccc3)nc2n1-c1ccc(CN2CCCC(NC(=O)c3ccc(C=O)c(O)c3)CC2)cc1 (centres unmarked) [Example 116, N-(1-(4-(2-(2-aminopyridin-3-yl)-5-phenyl-3H-imidazo[4,5-b]pyridin-3-yl)benzyl)azepan-4-yl)-4-formyl-3-hydroxybenzamide]
8 | > 600 | Nc1ncccc1-c1nc2ccc(-c3ccccc3)nc2n1-c1ccc(CN2CCCCC(NC(=O)c3ccc(O)c(C=O)c3)C2)cc1 (centres unmarked) [Example 117, N-(1-(4-(2-(2-Aminopyridin-3-yl)-5-phenyl-3H-imidazo[4,5-b]pyridin-3-yl)benzyl)azepan-3-yl)-3-formyl-4-hydroxybenzamide]
9 | > 600 | Nc1ncccc1-c1nc2ccc(-c3ccccc3)nc2n1-c1ccc(CN2CCCCC(NC(=O)c3ccc(C=O)c(O)c3)C2)cc1 (centres unmarked) [Example 118, N-(1-(4-(2-(2-Aminopyridin-3-yl)-5-phenyl-3H-imidazo[4,5-b]pyridin-3-yl)benzyl)azepan-3-yl)-4-formyl-3-hydroxybenzamide]
10 | 15 to 60 | Nc1ncccc1-c1nc2ccc(-c3ccccc3)nc2n1-c1ccc(CN2CCCN(C(=O)c3ccc(O)c(C=O)c3)CC2)cc1 [Example 119, 5-(4-(4-(2-(2-Aminopyridin-3-yl)-5-phenyl-3H-imidazo[4,5-b]pyridin-3-yl)benzyl)-1,4-diazepane-1-carbonyl)-2-hydroxybenzaldehyde]
11 | 15 to 60 | Nc1ncccc1-c1nc2ccc(-c3ccccc3)nc2n1-c1ccc(CN2CCCN(c3ccc(C=O)c(O)c3)CC2)cc1 [Example 120, 4-(4-(4-(2-(2-Aminopyridin-3-yl)-5-phenyl-3H-imidazo[4,5-b]pyridin-3-yl)benzyl)-1,4-diazepan-1-yl)-2-hydroxybenzaldehyde]
